# Measured values reported in patent US20110097268A1, “RADIOHALOIMATINIBS AND METHODS OF THEIR SYNTHESIS AND USE IN PET IMAGING OF CANCERS” (priority 2006, published 2011).
# Experiment: Storage stability of STI-Cl at room temperature
# Format: physicochemical
# Excerpt: Attempts to make radiolabeling precursor, triflate, mesylate active leaving group from STI-OH failed because it was easily degraded into a mixture of starting material alcohol and STI-Cl during the purification of chromatography on Silica Gel. The behavior of these β-triflate amines may be due to the participation effect of nitrogen which cause triflate to leave by aliphatic chain cyclisation giving the aziridinium ion, which in turn reacts with the nucleophilic agent OH^−, Cl^−. In order to get a pure precursor, STI-Cl analog was selected as a target compound. The hydroxyl-Benzoic acid (9c) was treated with thionyl chloride to achieve the corresponding chloro-acid chloride dihydrochloride (10d). Subsequent condensation with N-(2-Methyl-5-aminophenyl)-4-(3-pyridyl)-2-pyrimidine-amine (6) in pyridine affords the STI-Cl. […] The Sti-Cl was treated with tetra ammonia fluoride at 80° C. in acetonitrile for 30 mins to generate cold Sti-F. Sti-Cl was also treated with tetra ammonia fluoride at 80° C. in acetonitrile microwave for 5 mins to generate cold Sti-F. The traditional heating method gave more yield and the microwave condition gave more clean reaction. (FIG. 3).
smiles,measurement,value
Cc1ccc(NC(=O)c2ccc(CN3CCN(CCCl)CC3)cc2)cc1Nc1nccc(-c2cccnc2)n1 [STI-Cl],stability,not stable and decomposed at room temperature over two weeks
